For experiment [1], the target named is T1, Squalene synthase (Rattus norvegicus, UniProt Q02769).
T1 sequence (Q02769 whole entry): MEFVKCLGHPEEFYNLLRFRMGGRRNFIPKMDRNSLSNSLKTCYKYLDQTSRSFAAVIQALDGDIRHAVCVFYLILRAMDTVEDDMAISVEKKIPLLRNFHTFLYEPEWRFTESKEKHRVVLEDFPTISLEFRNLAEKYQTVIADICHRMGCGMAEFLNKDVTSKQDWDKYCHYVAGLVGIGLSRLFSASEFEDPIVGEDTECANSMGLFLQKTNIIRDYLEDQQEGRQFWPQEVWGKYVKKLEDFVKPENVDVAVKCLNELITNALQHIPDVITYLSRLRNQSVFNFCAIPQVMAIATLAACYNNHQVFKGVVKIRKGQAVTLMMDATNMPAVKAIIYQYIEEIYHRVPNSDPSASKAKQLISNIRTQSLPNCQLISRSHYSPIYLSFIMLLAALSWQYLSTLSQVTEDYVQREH
Description: Compound was evaluated for its inhibitory activity against rat hepatic squalene synthase at a concentration of 1000 uM; NI = No inhibition.

Experiment [2] deals with T1, Squalene synthase. Description: Inhibitory activity against rat hepatic squalene synthase.

pIC50: −log10 of the molar value.

On to `C[N+](C)(CCCCS(=O)(=O)[O-])CCc1ccccc1`, for which the IC50 result in experiment [1] is listed as “Not Active”.

Take `CC(C)=CCC/C(C)=C/CC/C(C)=C/C[N+](C)(C)CCCCS(=O)(=O)[O-]`: in experiment [2], the pIC50 (usually the negative decadic logarithm of the IC50, by convention in mol/L) is 4.82.

Turning to `C[N+](C)(CCCCc1ccc(-c2ccccc2)cc1)CCCCS(=O)(=O)[O-]`, the pIC50 in experiment [2] is 4.60.

In turn, `C[N+](C)(CCCCCCc1ccc(-c2ccccc2)cc1)CCCCS(=O)(=O)[O-]` gave a pIC50 in experiment [2] of 4.22.

The compound `C[N+](C)(CCCCCc1ccc(-c2ccccc2)cc1)CCCCS(=O)(=O)[O-]` gave a pIC50 in experiment [2] of 5.30.

In experiment [2], `C[N+](C)(CCCCCCCCCCc1ccccc1)CCCCS(=O)(=O)[O-]` showed a pIC50 of 5.22.

For `C[N+](C)(CCCCS(=O)(=O)[O-])Cc1ccccc1`, the IC50 entry in experiment [1] is recorded as “Not Active”.

As for `C[N+](C)(CCCCCCCCCc1ccccc1)CCCCS(=O)(=O)[O-]`, in experiment [2], the pIC50 is 5.70.

`C[N+](C)(CCCCCCCCc1ccccc1)CCCCS(=O)(=O)[O-]`: the pIC50 in experiment [2] was 5.10.

Consider `C[N+](C)(CCCCCCc1ccccc1)CCCCS(=O)(=O)[O-]`, for which the pIC50 in experiment [2] is 4.00.

The values are drawn from ChEMBL document CHEMBL1151086, “Sulfobetaine zwitterionic inhibitors of squalene synthase” (Bioorg Med Chem Lett, 1996).
